Entries after “also recorded” stand apart in the source; their conditions may differ. Counter-ions that a name gives are not always drawn.

The source of these data is patent US20100144755A1 (Glaxo Group Limited, priority 2006, published 2010).

In the assay the test system is influx of neutrophils to the lung in LPS-challenged rats. Briefly: Rat LPS neutrophilia model. The conditions noted are these: LPS aerosol, intratracheal dosing, in at least one of the range of conditions tested, significance p<0.05. The assay is classed as in vivo. On the procedure: Rat LPS Neutrophilia Model
The effect of compounds on the influx of neutrophils to the lung in LPS-challenged rats is evaluated as follows. The test compound is suspended in one of the following solutions: 0.5% tween 80/PBS, 0.5% tween 80/saline, 10% EtOH/saline (with pH adjusted to 2.0, or 8.0 with HCl, or unadjusted), Saline @pH 2.0, 6.5 or 8.0, 0.5% Tragacanth, 1% DMSO/20% Encapsin/Saline, or acidified 5% Tragacanth. The suspension process may be aided by the use of a glass homogenizer. For intratracheal administration, the animals are anesthetized with inhaled isoflurane and placed in a supine position, the trachea is intubated with a steel gavage needle (1.5 inch, 22 gauge, small ball) or a Penn-Century Microsprayer Aerosolizer (model IA-1B) and 200 ul of dosing solution is delivered. The animals are visually monitored during the recovery process, which typically occurs within two minutes. It is noted that the test compounds may be alternatively administered via the microsprayer in a dry powder blend with a suitable excipient, such as lactose.
Rats treated with compound or vehicle (15 min-24 hours pretreatment) are exposed to an LPS aerosol (100 ug/ml) for 15 min. Four hours later the rats are euthanized with pentobarbital (100 mg/kg, i.p.) and the airways are lavaged with 5 washes of 5 ml of phosphate buffered saline. The harvested cells are stained (Diffquick) and counted to determine total and differential cell data. […] Inhibition of neutrophil levels relative to no compound controls is calculated based on the differential counts.
The data is obtained as % inhibition using a particular concentration and pretreat time.
Take `Cc1ccc(C(=O)Nc2ccc(F)cc2)cc1-c1nc(N(C)CCN(C)C)nc2c1ccc(=O)n2-c1c(F)cccc1F` [Example 99, 3-{8-(2,6-difluorophenyl)-2-[[2-(dimethylamino)ethyl](methyl)amino]-7-oxo-7,8-dihydropyrido[2,3-d]pyrimidin-4-yl}-N-(4-fluorophenyl)-4-methylbenzamide]: the inhibition of neutrophilia result was “statistically nonsignificant inhibition”.
For `Cc1ccc(C(=O)Nc2nccs2)cc1-c1nc(NCCCNC(C)C)nc2c1ccc(=O)n2-c1c(F)cccc1F` [Example 101, 3-[8-(2,6-difluorophenyl)-2-({3-[(1-methylethyl)amino]propyl}amino)-7-oxo-7,8-dihydropyrido[2,3-d]pyrimidin-4-yl]-4-methyl-N-1,3-thiazol-2-ylbenzamide], the inhibition of neutrophilia result is reported as “statistically significant inhibition”.
In the case of `Cc1ccc(C(=O)Nc2nccs2)cc1-c1nc(NCCCNC(C)(C)C)nc2c1ccc(=O)n2-c1c(F)cccc1F` [Example 102, 3-[8-(2,6-difluorophenyl)-2-({3-[(1,1-dimethylethyl)amino]propyl}amino)-7-oxo-7,8-dihydropyrido[2,3-d]pyrimidin-4-yl]-4-methyl-N-1,3-thiazol-2-ylbenzamide], the inhibition of neutrophilia result is recorded as “statistically nonsignificant inhibition”.
On to `Cc1ccc(C(=O)Nc2nccs2)cc1-c1nc(NCCNC(C)C)nc2c1ccc(=O)n2-c1c(F)cccc1F` [Example 103, 3-[8-(2,6-difluorophenyl)-2-({2-[(1-methylethyl)amino]ethyl}amino)-7-oxo-7,8-dihydropyrido[2,3-d]pyrimidin-4-yl]-4-methyl-N-1,3-thiazol-2-ylbenzamide], for which the inhibition of neutrophilia result was “statistically significant inhibition”.
In the case of `Cc1ccc(C(=O)Nc2nccs2)cc1-c1nc(N(C)CCCN(C)C)nc2c1ccc(=O)n2-c1c(F)cccc1F` [Example 107, 3-{8-(2,6-difluorophenyl)-2-[[3-(dimethylamino)propyl](methyl)amino]-7-oxo-7,8-dihydropyrido[2,3-d]pyrimidin-4-yl}-4-methyl-N-1,3-thiazol-2-ylbenzamide], the inhibition of neutrophilia entry is “statistically significant inhibition”.
For the compound `Cc1ccc(C(=O)Nc2nccs2)cc1-c1nc(NCCN(C)C)nc2c1ccc(=O)n2-c1c(F)cccc1F` [Example 109, 3-(8-(2,6-difluorophenyl)-2-{[2-(dimethylamino)ethyl]amino}-7-oxo-7,8-dihydropyrido[2,3-d]pyrimidin-4-yl)-4-methyl-N-1,3-thiazol-2-ylbenzamide], the inhibition of neutrophilia entry was “statistically significant inhibition”.
As to `Cc1ccc(C(=O)Nc2ccc(F)cc2)cc1-c1nc(NCCN(C)C)nc2c1ccc(=O)n2-c1c(F)cccc1F` [Example 112, 3-(8-(2,6-difluorophenyl)-2-{[2-(dimethylamino)ethyl]amino}-7-oxo-7,8-dihydropyrido[2,3-d]pyrimidin-4-yl)-N-(4-fluorophenyl)-4-methylbenzamide], the inhibition of neutrophilia result is given as “statistically nonsignificant inhibition”.
On to `Cc1ccc(C(=O)NC(C)C)cc1-c1nc(NCCN(C)C)nc2c1ccc(=O)n2-c1c(F)cccc1F` [Example 117, 3-(8-(2,6-difluorophenyl)-2-{[2-(dimethylamino)ethyl]amino}-7-oxo-7,8-dihydropyrido[2,3-d]pyrimidin-4-yl)-4-methyl-N-(1-methylethyl)benzamide], for which the inhibition of neutrophilia result is given as “statistically significant inhibition”.
On to `CCN(CC)CCCNc1nc(-c2cc(C(=O)NC)ccc2C)c2ccc(=O)n(-c3c(F)cccc3F)c2n1` [Example 119, 3-[2-{[3-(diethylamino)propyl]amino}-8-(2,6-difluorophenyl)-7-oxo-7,8-dihydropyrido[2,3-d]pyrimidin-4-yl]-N,4-dimethylbenzamide], for which the inhibition of neutrophilia result is recorded as “statistically significant inhibition”.
As to `CCN(CC)CCCNc1nc(-c2cc(C(=O)N(C)C)ccc2C)c2ccc(=O)n(-c3c(F)cccc3F)c2n1` [Example 120, 3-[2-{[3-(diethylamino)propyl]amino}-8-(2,6-difluorophenyl)-7-oxo-7,8-dihydropyrido[2,3-d]pyrimidin-4-yl]-N,N,4-trimethylbenzamide], the inhibition of neutrophilia entry was “statistically nonsignificant inhibition; also recorded: inactive”.
As for `CCCNC(=O)c1ccc(C)c(-c2nc(NCCCN(CC)CC)nc3c2ccc(=O)n3-c2c(F)cccc2F)c1` [Example 122, 3-[2-{[3-(diethylamino)propyl]amino}-8-(2,6-difluorophenyl)-7-oxo-7,8-dihydropyrido[2,3-d]pyrimidin-4-yl]-4-methyl-N-propylbenzamide], the inhibition of neutrophilia entry is “statistically nonsignificant inhibition”.
For the compound `CCN(CC)CCCNc1nc(-c2cc(C(=O)NCC(C)C)ccc2C)c2ccc(=O)n(-c3c(F)cccc3F)c2n1` [Example 124, 3-[2-{[3-(diethylamino)propyl]amino}-8-(2,6-difluorophenyl)-7-oxo-7,8-dihydropyrido[2,3-d]pyrimidin-4-yl]-4-methyl-N-(2-methylpropyl)benzamide], the inhibition of neutrophilia result is recorded as “statistically significant inhibition”.
Consider `CCN(CC)CCCNc1nc(-c2cc(C(=O)NC3CCCC3)ccc2C)c2ccc(=O)n(-c3c(F)cccc3F)c2n1` [Example 125, N-cyclopentyl-3-[2-{[3-(diethylamino)propyl]amino}-8-(2,6-difluorophenyl)-7-oxo-7,8-dihydropyrido[2,3-d]pyrimidin-4-yl]-4-methylbenzamide], for which the inhibition of neutrophilia result is on record as “statistically nonsignificant inhibition”.
As to `CCN(CC)CCCNc1nc(-c2cc(C(=O)NCC(F)(F)F)ccc2C)c2ccc(=O)n(-c3c(F)cccc3F)c2n1` [Example 128, 3-[2-{[3-(diethylamino)propyl]amino}-8-(2,6-difluorophenyl)-7-oxo-7,8-dihydropyrido[2,3-d]pyrimidin-4-yl]-4-methyl-N-(2,2,2-trifluoroethyl)benzamide], the inhibition of neutrophilia entry was “inactive”.
With `CCNC(=O)c1ccc(C)c(-c2nc(NCCCN(CC)CC)nc3c2ccc(=O)n3-c2c(F)cccc2F)c1` [Example 129, 3-[2-{[3-(diethylamino)propyl]amino}-8-(2,6-difluorophenyl)-7-oxo-7,8-dihydropyrido[2,3-d]pyrimidin-4-yl]-N-ethyl-4-methylbenzamide], the inhibition of neutrophilia result is on record as “statistically nonsignificant inhibition”.
As for `CCN(CC)CCCNc1nc(-c2cc(C(=O)NCC3CCCC3)ccc2C)c2ccc(=O)n(-c3c(F)cccc3F)c2n1` [Example 132, N-(cyclopentylmethyl)-3-[2-{[3-(diethylamino)propyl]amino}-8-(2,6-difluorophenyl)-7-oxo-7,8-dihydropyrido[2,3-d]pyrimidin-4-yl]-4-methylbenzamidetrifluoroacetate], the inhibition of neutrophilia entry is reported as “statistically nonsignificant inhibition”.
As for `CCN(CC)CCCNc1nc(-c2cc(C(=O)NCCF)ccc2C)c2ccc(=O)n(-c3c(F)cccc3F)c2n1` [Example 133, 3-[2-{[3-(diethylamino)propyl]amino}-8-(2,6-difluorophenyl)-7-oxo-7,8-dihydropyrido[2,3-d]pyrimidin-4-yl]-N-(2-fluoroethyl)-4-methylbenzamidetrifluoroacetate], the inhibition of neutrophilia entry is recorded as “statistically significant inhibition”.
For the compound `CCN(CC)CCCNc1nc(-c2cc(C(=O)NCCOC)ccc2C)c2ccc(=O)n(-c3c(F)cccc3F)c2n1` [Example 134, 3-[2-{[3-(diethylamino)propyl]amino}-8-(2,6-difluorophenyl)-7-oxo-7,8-dihydropyrido[2,3-d]pyrimidin-4-yl]-4-methyl-N-[2-(methyloxy)ethyl]benzamidetrifluoroacetate], the inhibition of neutrophilia entry is “statistically nonsignificant inhibition”.
Consider `CCN(CC)CCCNc1nc(-c2cc(C(=O)NCC3CCCCC3)ccc2C)c2ccc(=O)n(-c3c(F)cccc3F)c2n1` [Example 135, N-(cyclohexylmethyl)-3-[2-{[3-(diethylamino)propyl]amino}-8-(2,6-difluorophenyl)-7-oxo-7,8-dihydropyrido[2,3-d]pyrimidin-4-yl]-4-methylbenzamidetrifluoroacetate], for which the inhibition of neutrophilia entry was “inactive”.
On to `CCN(CC)CCCNc1nc(-c2cc(C(=O)NC3CCC3)ccc2C)c2ccc(=O)n(-c3c(F)cccc3F)c2n1` [Example 137, N-cyclobutyl-3-[2-{[3-(diethylamino)propyl]amino}-8-(2,6-difluorophenyl)-7-oxo-7,8-dihydropyrido[2,3-d]pyrimidin-4-yl]-4-methylbenzamide trifluoroacetate], for which the inhibition of neutrophilia result is “statistically significant inhibition”.
Turning to `CCN(CC)CCCNc1nc(-c2cc(C(=O)NCC3CC3)ccc2C)c2ccc(=O)n(-c3c(F)cccc3F)c2n1` [Example 138, N-(cyclopropylmethyl)-3-[2-{[3-(diethylamino)propyl]amino}-8-(2,6-difluorophenyl)-7-oxo-7,8-dihydropyrido[2,3-d]pyrimidin-4-yl]-4-methylbenzamide trifluoroacetate], the inhibition of neutrophilia entry is recorded as “statistically nonsignificant inhibition”.
